Experimental data published in patent publication US6124453A, “Macrolides” (Novartis AG, priority 1995, dated 2000).

Legend:
[1] = biological target: FK binding protein (Homo sapiens, UniProt P62942); assay: FK binding protein binding (standard test); settings: standard tests
[2] = test system: DTH footpad swelling; assay: DTH induced by SRBC-TH cells; assay type: in vivo, C57 BL/6 mice; settings: doses of the order of 5 mg/kg s.c., footpad thickness after 24 hours
Description: 7. DTH Induced by SRBC-TH Cells
50 μl of the SRBC cell suspension (diluted 1:1 v/v with PBS) is injected s.c. into the left hind footpad (to measure non specific increase in footpad swelling due to the injection procedure). Right and left hind footpad thickness is measured 24 hours later.
The percent increase in thickness of the right footpad over the left footpad (z) is calculated. Thickness of right footpad=x. thickness of left footpad=y; % specific increase=z

[3] = test system: Tumour Necrosis Factor (TNF) α release by peripheral blood mononuclear cells; assay: TNF release by human peripheral blood mononuclear cells; assay type: cell-based; settings: PBMC, IFNγ 100 U/ml and LPS 5 μg/ml, 3 h incubation, ELISA
Description: 4. TNF Release by Human Peripheral Blood Mononuclear Cells
Mononuclear cells are prepared from the peripheral blood of healthy volunteers using Ficoll-Hypaque density separation according to the method of Hansell et al. (1991). Cells (10^5 cells/well in 200 μl RPMI 10% FCS by volume) are incubated with serial dilutions of the test compounds for 30 min at 37° C. prior to the addition of stimulus. Interferon γ (100 U/ml) and LPS (5 μg/ml) are used as stimuli to induce Tumour Necrosis Factor (TNF) α release by peripheral blood mononuclear cells. After 3 h incubation, the cells are centrifuged (1200 rpm for 10 min) and the supernatants are collected. The amount of TNF present in the cell supernatants is determined using a commercially available enzyme-linked immunosorbent assay kit.

[4] = Cytotoxic and cytostatic activity in vitro using the THP1 cell line (MTT); assay type: cell-based; settings: human, thp1 cells; after 24 h incubation, IFNγ 100 U/ml and LPS 5 μg/ml; read-out: IC50, cytotoxicity THP1 (MTT)
Description: 3. Cytotoxic and Cytostatic Activity in Vitro Using the THP1 Cell Line
Cytotoxicity is determined using the human monocytic cell line THP1 (5×10^4 cells/well) which are incubated in the presence of IFNγ (100 U/ml)and LPS (5 μg/ml) plus test compound (up to 10 μM) for 24 to 72 h at 37° C. Living cells are quantified using the colourimetric read-out MTT which measures mitochondrial dehydrogenase enzymatic activity in living cells (Mossman 1983). Macrolides of the invention, e.g. compounds of formula IX and their pharmaceutically acceptable salts, e.g. Sanglifehrins A, B, C and D, have IC50 s of about 1000-5000 nM after 24 h incubation in this assay.

[5] = test system: spleen cells from Balb/c mice co-incubated with spleen cells from CBA mice; assay: Two-way MLR (murine mixed lymphocyte reaction); assay type: cell-based; settings: Mus musculus, 96 h, 4 days co-incubation, labelled precursor incorporation into DNA, read-out: IC50, proliferative response in two-way MLR
Description: 1. Proliferative Response Of Lymphocvtes to Allogenic Stimulation
Two-way MLR (Murine Mixed Lymphocyte Reaction)
Spleen cells (2×10^5) from Balb/c mice (female, 8-10 weeks) are co-incubated for 4 days with 2×10^5 spleen cells from CBA mice (female, 8-10 weeks). The allogenic cells induce a proliferative response in the responder spleen cell population which is measured by labelled precursor incorporation into the DNA.

[6] = test system: LPS-stimulated Murine B-cells; assay: LPS-stimulated murine B-cell proliferation; assay type: cell-based, CBA mice; settings: Mus musculus, 48 hours with 50 μg/ml LPS, labelled precursor incorporation into DNA, read-out: IC50, inhibition of B-cell proliferation
Description: LPS-stimulated Murine B-cells
Spleen cells (2×10^5) from CBA mice are incubated for 48 hours with 50 μg/ml LPS plus test compound. Proliferation is measured by labelled precursor incorporation into DNA.

[7] = test system: heart allograft; assay: Mouse heart allotransplantation (BALB/c to C3H); assay type: in vivo; settings: doses of the order of 30 mg/kg/day, s.c. Alzet osmotic minipumps
Description: (§1) 8. Rat/Mouse Heart Allotransplantation
(§2) The in vivo efficacy of macrolides of the invention is assessed in rat and mouse heart allotransplantation using Alzet osmotic minipumps for s.c. administration.

[8] = test system: heart allograft; assay: Rat heart allotransplantation (DA to Lewis); assay type: in vivo; settings: in combination with suboptimal doses of cyclosporin A
Description: as §1, §2

[9] = biological target: human recombinant cyclophilin A (Homo sapiens, UniProt P62937); assay: Cyclophilin binding assay (competitive ELISA / competitive binding test); settings: competition with coated BSA-cyclosporin A
Description: 5. Cyclophilin Binding Assay
A suitable cyclophilin binding assay is the competitive ELISA test described by Quesniaux in Eur. J. Immunol. 1987 17 1359-1365.

[10] = test system: Localised Graft-versus-Host (GvH) reaction; assay: Localised graft-versus-host (GvH) reaction in the rat; assay type: in vivo; settings: dose of about 1 mg/kg s.c., 4 consecutive days, lymph node weight on day 7
Description: 6. Localised Graft-versus-Host (GvH) Reaction in the Rat
Spleen cells (1×10^7) from 6 week old female Wistar/Furth (WF) rats are injected subcutaneously on day 0 into the left hind-paw of female (F344×WF)F1 rats weighing about 100 g. Animals are treated for 4 consecutive days and the popliteal lymph nodes are removed and weighed on day 7. The difference in weight between the two lymph nodes is taken as the parameter for evaluating the reaction.

[11] = test system: calcineurin; assay: Calcineurin activity (standard test); assay type: biochemical; settings: standard tests

Sequence of FK binding protein (P62942 whole entry): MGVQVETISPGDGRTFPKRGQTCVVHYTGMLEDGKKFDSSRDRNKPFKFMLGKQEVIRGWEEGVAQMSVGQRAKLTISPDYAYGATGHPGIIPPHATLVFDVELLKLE
Sequence of human recombinant cyclophilin A (P62937 whole entry): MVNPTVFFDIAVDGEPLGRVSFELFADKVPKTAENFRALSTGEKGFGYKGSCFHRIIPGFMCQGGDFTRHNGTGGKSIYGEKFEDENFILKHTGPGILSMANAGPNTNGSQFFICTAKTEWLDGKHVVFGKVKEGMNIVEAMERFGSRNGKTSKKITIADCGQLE

Row | SMILES | FK binding protein binding activity [1] | reduction of swelling of the DTH mouse [2] | IC50 [3] | CC50 at 24 h [4] | IC50 [5] | IC50 [6] | graft survival (in words), mouse heart allotransplantation [7] | graft survival (in words), rat heart allotransplantation [8] | IC50 [9] | inhibition of the GvH reaction [10] | inhibition of calcineurin activity [11]
1 | CC[C@H]1C[C@H](C)[C@@]2(NC1=O)O[C@@H](C[C@H](O)[C@@H](C)CC/C=C/C=C(\C)[C@@H]1C/C=C/C=C/[C@H](O)[C@H](C)[C@@H](O)[C@@H](CCC(C)=O)C(=O)N[C@@H](C(C)C)C(=O)N[C@@H](Cc3cccc(O)c3)C(=O)N3CCC[C@H](N3)C(=O)O1)[C@H](C)[C@H](O)[C@@H]2C [Sanglifehrin A] | do not have FK binding protein binding activity | up to 50% | 0.2 to 1 µM | 1 to 5 µM | 0.03 to 0.2 µM | 40 to 100 µM | prolong graft survival | prolonged graft survival | – | – | –
2 | CCC1CC(C)C2(NC1=O)OC(CC(O)C(C)CCC=CC=C(C)C1CC=CC=CC(O)C(C)C(O)C(CCC(C)=O)C(=O)NC(C(C)C)C(=O)NC(Cc3cccc(O)c3)C(=O)N3CCCC(N3)C(=O)O1)C(C)C=C2C (stereo not drawn) [Sanglifehrin B] | do not have FK binding protein binding activity | up to 50% | 0.2 to 1 µM | 1 to 5 µM | 0.03 to 0.2 µM | 40 to 100 µM | prolong graft survival | prolonged graft survival | 0.01 to 0.1 µM | up to 30% | do not inhibit calcineurin activity
3 | CCC1CC(C)C2(NC1=O)OC(CC(O)C(C)CCC=CC=C(C)C1CC=CC=CC(O)C(C)C3OC(C)(OC)CCC3C(=O)NC(C(C)C)C(=O)NC(Cc3cccc(O)c3)C(=O)N3CCCC(N3)C(=O)O1)C(C)C(O)C2C (stereo not drawn) [Sanglifehrin C] | do not have FK binding protein binding activity | up to 50% | 0.2 to 1 µM | 1 to 5 µM | 0.03 to 0.2 µM | 40 to 100 µM | prolong graft survival | prolonged graft survival | 0.01 to 0.1 µM | up to 30% | do not inhibit calcineurin activity
